# Experimental data reported in PubChem BioAssay (NCI).
# Several values for one entry are separate records, joined by “and”; a condition that tells them apart may be missing. Identical values can stand only once.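 Step 1: Grow cells in 96-well plates. Step 2: Expose to compound for 48 hours at 5 concentrations. Step 3: Interpolate endpoints linearly; if unreached, use highest concentration. At the GI50, growth is halved. Definition used: TGI = concentration required for complete inhibition of growth.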
# Assays:
# Assay in all cases: NCI-60 cell line screen, 48 h
# BT-549 breast = test system: BT-549 breast
# DU-145 prostate = test system: DU-145 prostate
# NCI-H23 lung = test system: NCI-H23 lung
# UACC-62 melanoma = test system: UACC-62 melanoma
# MDA-MB-231 breast = test system: MDA-MB-231 breast
# HCT-116 colon = test system: HCT-116 colon
# SK-MEL-28 melanoma = test system: SK-MEL-28 melanoma
# SK-OV-3 ovarian = test system: SK-OV-3 ovarian
Compound,GI50 (BT-549 breast),TGI (BT-549 breast),GI50 (DU-145 prostate),TGI (DU-145 prostate),GI50 (NCI-H23 lung),TGI (NCI-H23 lung),GI50 (UACC-62 melanoma),TGI (UACC-62 melanoma),GI50 (MDA-MB-231 breast),TGI (MDA-MB-231 breast),GI50 (HCT-116 colon),TGI (HCT-116 colon) [µM],GI50 (SK-MEL-28 melanoma),TGI (SK-MEL-28 melanoma),GI50 (SK-OV-3 ovarian),TGI (SK-OV-3 ovarian)
CC(C)NCCCCCNc1cc(O)cc2cccnc12,> 37.7 µM,> 100 µM,> 100 µM,> 100 µM,> 24.6 µM,> 100 µM,> 100 µM,> 100 µM,4.78 µM,> 100 µM,67.9 µM,> 100,> 100 µM,> 100 µM,> 100 µM,> 100 µM
CCCC(=O)Nc1ncnc2c1ncn2C1OC2COP(=O)(O)OC2C1OC(=O)CCC (stereo unspecified),,> 1000 µM,> 1000 µM,> 1000 µM,> 1000 µM,> 1000 µM,> 1000 µM,> 1000 µM,,> 1000 µM,> 1000 µM,> 1000,> 1000 µM,> 1000 µM,> 1000 µM,> 1000 µM
CCCN(CCC)c1ccc(/C=N/NC(=O)c2cccnc2)cc1,30.7 µM,> 100 µM,36.1 µM,> 100 µM,36.1 µM,> 100 µM,34.7 µM,> 100 µM,,,23.5 µM,> 100,33.6 µM,> 100 µM,30.6 µM,> 100 µM
CCNC(=O)c1ccc2c(c1)nc(-c1ccc(Cl)cc1)n2-c1cc(C(C)(C)C)[nH]n1,4.53 µM,18.2 µM,3.72 µM,34.9 µM,2.78 µM,20.3 µM,2.05 µM,7.61 µM,5.56 µM,28.5 µM,3.17 µM,12.3,2.78 µM,11.7 µM,3.6 µM,17.3 µM
NCC(=O)NC(CO)C(=O)O (stereo unspecified),,> 100 µM,,> 100 µM,,> 100 µM,,> 100 µM,,> 100 µM,,> 100,,> 100 µM,,> 100 µM
COc1cccc2cc(-c3nc(C4CCC(C(=O)O)CC4)n4ncnc(N)c34)[nH]c12 (stereo unspecified),0.0939 µM and 0.168 µM,1.06 µM and 1.49 µM,1.22 µM and 1.63 µM,24.3 µM and > 10 µM,0.634 µM and 0.734 µM,18.4 µM and > 10 µM,0.18 µM and 0.188 µM,1.51 µM and 1.83 µM,0.39 µM and 0.348 µM,23.5 µM and > 10 µM,0.824 µM and 1.08 µM,> 100,0.175 µM and 0.169 µM,1.81 µM and 1.4 µM,0.223 µM and 0.278 µM,1.75 µM and 2.21 µM
O=C1C(Cl)=C(Nc2cccc(O)c2)C(=O)N1c1ccc(Cl)cc1Cl,13.9 µM,54.6 µM,23.1 µM,90.5 µM,24.9 µM,88.7 µM,21.4 µM,57.7 µM,23.3 µM,77.5 µM,24.3 µM,97.6,60.9 µM,> 100 µM,40.4 µM,> 100 µM
C=CCCC(O)c1ccc(CCCCCCCCCCC)o1 (stereo unspecified),16.7 µM,30.7 µM,16.4 µM,31.1 µM,19.3 µM,40.6 µM,12.3 µM,25 µM,12.6 µM,26.2 µM,18 µM,32.2,14.9 µM,29.6 µM,16.9 µM,33.8 µM
